In article PMC12782889, “A GmNRF5a–GmCERK1–GmCAK1 module mediates chitin/chitosan‐triggered immune response in soybean” (Journal of Integrative Plant Biology, 2025):

System: soybean leaf discs (ROS burst)
Experiment: Luminol-based ROS burst assay in soybean leaf discs
Assay type: cell-based, soybean (Glycine max)
Settings: 50 mg/L, leaf discs of soybean Williams, dH2O negative control
Procedure: To measure the oxidation burst, leaf discs (Ø 0.5 cm) collected from 2-week-old soybean (cultivar Williams) were floated overnight in 200 μL sterile H2O in a 96-well plate. The H2O was replaced with 200 μL reaction buffer containing luminol/peroxidase ([…] luminol, 10 mg/mL peroxidase) and chitooligosaccharides treatments (50 mg/L). flg22 was used as a positive control. The luminescence was measured using a GLOMAX96 microplate luminometer (Promega, Madison, WI, USA). The experiments for MAPK activation were carried out as described previously ([[…] et al., 2014]). The MAPK activation was determined by immunoblots with anti-phospho-p44/42 MAPK antibody (#4370; Cell Signaling, Boston, MA, USA).

Compound: CC(=O)N[C@@H]1[C@@H](O)[C@H](O[C@@H]2O[C@H](CO)[C@@H](O[C@@H]3O[C@H](CO)[C@@H](O[C@@H]4O[C@H](CO)[C@@H](O[C@@H]5O[C@H](CO)[C@@H](O)[C@H](O)[C@H]5NC(C)=O)[C@H](O)[C@H]4NC(C)=O)[C@H](O)[C@H]3NC(C)=O)[C@H](O)[C@H]2NC(C)=O)[C@@H](CO)O[C@H]1O [Chitin oligosaccharide (dp5), chitin oligosaccharide]
- ROS burst: stronger ROS burst than that of CTOS (dp4)
